Laboratory results reported in patent US20250152473A1, “STABLE PLINABULIN FORMULATIONS AND METHODS OF THEIR PREPARATION AND USE” (BeyondSpring Pharmaceuticals, Inc., priority 2022, published 2025).

Key:
[1] = Stress test of solid plinabulin, 30 days light storage vs dark control; type: physicochemical
Source text: This comparative example reports a plinabulin stress test of solid plinabulin showing relative stability to light storage for 30 days. […]

[2] = Light sensitivity study of solid plinabulin; type: physicochemical
Source text: Table 8 illustrates the stability of solid plinabulin in a light sensitivity study.

[3] = solid, minimum of 1.2 million LUX hours and 200 watts/square meter

## CC(C)(C)c1[nH]cnc1/C=c1\[nH]c(=O)/c(=C/c2ccccc2)[nH]c1=O [Plinabulin, (3Z,6Z)-3-Benzylidene-6-{[5-(2-methyl-2-propanyl)-1H-imidazol-4-yl]methylene}-2,5-piperazinedione]
[1]; Control Sample (dark), 0 days
  Alcohol Impurity by HPLC: 0.02%
  Amide Impurity by HPLC: 0.02%
  Appearance: Yellow
  Assay by HPLC: 98.9% w/w
  Cyano Impurity by HPLC: 0.1%
  De-Carboxylate Impurity by HPLC: 0.1%
  Ether Impurity by HPLC: 0.02%
  Impurity-489-1 by HPLC: 0.1%
  Impurity-489-2 by HPLC: 0.1%
  Other Unspecified Impurity by HPLC: 0.02%
  Total Impurities by HPLC: 0.3%
  Water: 0.1%
[1]; Control Sample (dark), 5 days
  Alcohol Impurity by HPLC: 0.02%
  Amide Impurity by HPLC: 0.02%
  Appearance: Yellow
  Assay by HPLC: 98.42% w/w
  Cyano Impurity by HPLC: 0.11%
  De-Carboxylate Impurity by HPLC: 0.09%
  Ether Impurity by HPLC: 0.02%
  Impurity-489-1 by HPLC: 0.16%
  Impurity-489-2 by HPLC: 0.02%
  Other Unspecified Impurity by HPLC: 0.02%
  Total Impurities by HPLC: 0.36%
  Water: 0.05%
[1]; Control Sample (dark), 10 days
  Alcohol Impurity by HPLC: 0.02%
  Amide Impurity by HPLC: 0.02%
  Appearance: Yellow
  Assay by HPLC: 99.33% w/w
  Cyano Impurity by HPLC: 0.12%
  De-Carboxylate Impurity by HPLC: 0.09%
  Ether Impurity by HPLC: 0.02%
  Impurity-489-1 by HPLC: 0.12%
  Impurity-489-2 by HPLC: 0.02%
  Other Unspecified Impurity by HPLC: 0.02%
  Total Impurities by HPLC: 0.32%
  Water: 0.05%
[1]; Control Sample (dark), 30 days
  Alcohol Impurity by HPLC: 0.02%
  Amide Impurity by HPLC: 0.02%
  Appearance: Yellow
  Assay by HPLC: 99.29% w/w
  Cyano Impurity by HPLC: 0.11%
  De-Carboxylate Impurity by HPLC: 0.09%
  Ether Impurity by HPLC: 0.02%
  Impurity-489-1 by HPLC: 0.15%
  Impurity-489-2 by HPLC: 0.02%
  Other Unspecified Impurity by HPLC: 0.05%
  Total Impurities by HPLC: 0.36%
  Water: 0.05%
[1]; Photo Sample, 0 days
  Alcohol Impurity by HPLC: 0.02%
  Amide Impurity by HPLC: 0.02%
  Assay by HPLC: 98.9% w/w
  Cyano Impurity by HPLC: 0.1%
  De-Carboxylate Impurity by HPLC: 0.1%
  Ether Impurity by HPLC: 0.02%
  Impurity-489-1 by HPLC: 0.1%
  Impurity-489-2 by HPLC: 0.1%
  Other Unspecified Impurity by HPLC: 0.02%
  Total Impurities by HPLC: 0.3%
  Water: 0.1%
[1]; Photo Sample, 5 days
  Alcohol Impurity by HPLC: 0.02%
  Amide Impurity by HPLC: 0.02%
  Assay by HPLC: 99.37% w/w
  Cyano Impurity by HPLC: 0.11%
  De-Carboxylate Impurity by HPLC: 0.09%
  Ether Impurity by HPLC: 0.02%
  Impurity-489-1 by HPLC: 0.10%
  Impurity-489-2 by HPLC: 0.05%
  Other Unspecified Impurity by HPLC: 0.02%
  Total Impurities by HPLC: 0.3%
  Water: 0.05%
[1]; Photo Sample, 10 days
  Alcohol Impurity by HPLC: 0.02%
  Amide Impurity by HPLC: 0.02%
  Assay by HPLC: 99.36% w/w
  Cyano Impurity by HPLC: 0.12%
  De-Carboxylate Impurity by HPLC: 0.08%
  Ether Impurity by HPLC: 0.02%
  Impurity-489-1 by HPLC: 0.07%
  Impurity-489-2 by HPLC: 0.05%
  Other Unspecified Impurity by HPLC: 0.02%
  Total Impurities by HPLC: 0.27%
  Water: 0.05%
[1]; Photo Sample, 30 days
  Alcohol Impurity by HPLC: 0.02%
  Amide Impurity by HPLC: 0.02%
  Assay by HPLC: 99.17% w/w
  Cyano Impurity by HPLC: 0.11%
  De-Carboxylate Impurity by HPLC: 0.09%
  Ether Impurity by HPLC: 0.02%
  Impurity-489-1 by HPLC: 0.06%
  Impurity-489-2 by HPLC: 0.05%
  Other Unspecified Impurity by HPLC: 0.1%
  Total Impurities by HPLC: 0.6%
  Water: 0.05%
[2]; solid plinabulin
  Light sensitivity: not light sensitive
[2]; solid, Dark Control
  Appearance: Yellow Solid.
  HPLC (% AUC) at 214 nm: 99.3% AUC
  HPLC (% AUC) at 250 nm: 99.5% AUC
  HPLC (% AUC) at 370 nm: 99.4% AUC
  Impurity at 214 nm, rrt 0.86: 0.21% @rrt 0.86
  Impurity at 214 nm, rrt 0.97: 0.33% @rrt 0.97
  Impurity at 214 nm, rrt 1.17: 0.06% @rrt 1.17
  Impurity at 214 nm, rrt 1.27: 0.04% @rrt 1.27
  KF: 5.1%
  Single impurity >1% AUC at 214 nm: No single impurity
[2]; solid, Time 0
  Appearance: Yellow Solid.
  HPLC (% AUC) at 214 nm: 99.2% AUC
  HPLC (% AUC) at 250 nm: 99.4% AUC
  HPLC (% AUC) at 370 nm: 99.4% AUC
  Impurity at 214 nm, rrt 0.86: 0.21% @rrt 0.86
  Impurity at 214 nm, rrt 0.96: 0.36% @rrt 0.96
  Impurity at 214 nm, rrt 1.14: 0.06% @rrt 1.14
  Impurity at 214 nm, rrt 1.18: 0.05% @rrt 1.18
  Impurity at 214 nm, rrt 1.19: 0.02% @rrt 1.19
  Impurity at 214 nm, rrt 1.28: 0.02% @rrt 1.28
  KF: 5.1%
  Single impurity >1% AUC at 214 nm: No single impurity
[2]; [3]
  Appearance: Yellow Solid.
  HPLC (% AUC) at 214 nm: 99.4% AUC
  HPLC (% AUC) at 250 nm: 99.4% AUC
  HPLC (% AUC) at 370 nm: 99.5% AUC
  Impurity at 214 nm, rrt 0.40: 0.02% @rrt 0.40
  Impurity at 214 nm, rrt 0.49: 0.05% @rrt 0.49
  Impurity at 214 nm, rrt 0.68: 0.02% @rrt 0.68
  Impurity at 214 nm, rrt 0.86: 0.08% @rrt 0.86
  Impurity at 214 nm, rrt 0.97: 0.29% @rrt 0.97
  Impurity at 214 nm, rrt 1.17: 0.05% @rrt 1.17
  Impurity at 214 nm, rrt 1.27: 0.02% @rrt 1.27
  KF: 5.0%
  Single impurity >1% AUC at 214 nm: No single impurity
